According to publication PMC3369921, “Ecto-5′-Nucleotidase: A Candidate Virulence Factor in Streptococcus sanguinis Experimental Endocarditis” (PLoS ONE, 2012):

Biological target: T1, ecto-5′-nucleotidase (Nt5e) (Streptococcus sanguinis, UniProt I3RY26)
T1 construct: native enzyme on whole cells of S. sanguinis strain 133-79
Assay: whole-cell AMPase activity (phosphate release) dose-inhibition and Michaelis-Menten analysis
Format: cell-based

T1 sequence (I3RY26 entry or part of it): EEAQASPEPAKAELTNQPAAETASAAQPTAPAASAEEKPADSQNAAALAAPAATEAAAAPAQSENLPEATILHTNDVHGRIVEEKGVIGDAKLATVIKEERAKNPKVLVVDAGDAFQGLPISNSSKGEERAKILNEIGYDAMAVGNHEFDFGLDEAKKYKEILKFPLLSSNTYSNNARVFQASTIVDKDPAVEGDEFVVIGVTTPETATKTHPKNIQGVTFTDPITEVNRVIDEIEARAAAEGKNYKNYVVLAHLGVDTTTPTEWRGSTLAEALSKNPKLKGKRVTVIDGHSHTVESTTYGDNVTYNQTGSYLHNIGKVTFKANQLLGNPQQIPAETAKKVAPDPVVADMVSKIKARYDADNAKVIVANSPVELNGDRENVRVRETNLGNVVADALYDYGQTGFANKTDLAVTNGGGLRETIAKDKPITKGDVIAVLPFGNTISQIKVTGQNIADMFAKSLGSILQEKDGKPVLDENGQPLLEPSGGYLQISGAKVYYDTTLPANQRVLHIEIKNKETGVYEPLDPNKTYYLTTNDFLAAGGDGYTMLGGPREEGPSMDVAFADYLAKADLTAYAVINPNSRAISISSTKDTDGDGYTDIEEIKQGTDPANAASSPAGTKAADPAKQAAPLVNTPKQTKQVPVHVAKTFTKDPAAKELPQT

SMILES: Nc1ncnc2c1ncn2[C@@H]1O[C@H](COP(=O)(O)CP(=O)(O)O)[C@@H](O)[C@H]1O [APCP]
- IC50: 8.8 ± 3.8 µM
